Source: patent publication US4442087A (priority 1979, dated 1984)

Columns and labels:
Assay type in all cases: cell-based
[1] = test system: Mouse spleen cells (L cells used for determination); assay: IF induction in vitro, mouse cells; conditions: 1.0 μg/ml, 37 °C 24 h
Experimental: (§1) (A) IF induction and determination of IF activity:
(§2) A spleen cell suspension (10^7 cells/ml) was prepared by the method of hereinafter described Experiment 1 using an Eagle MEM medium (commercial product of Nissui Seiyaku K.K., Tokyo) containing a 10% calf serum (which was replaced by a 10% fetal cattle serum in the cases of human tests), each of which fraction (1 ml) was added with the sample of the active substance at a given concentration and incubated at a given temperature. The cultured liquor was centrifuged to separate a supernatant for use to determine the IF activity. Furthermore, in the cases of human tests, the fresh spleen was collected from a person (adult killed by external wounds) and used for the preparation of a leucocytes suspension on each occasion, and also blood was collected from the vein at the armpit of a person (adult, healthy) from which the serum was separated to use for the preparation of a serum suspension on each occasion. The IF activities were determined by using the cells shown in Table 5 by the method of hereinafterdescribed Experiment 1 and indicated in Table 6.

[2] = test system: Human spleen cells (FL cells used for determination); assay: IF induction in vitro, human spleen cells; conditions: 1.0 μg/ml, 25 °C 24 h
Experimental: as §1, §2

[3] = test system: Rabbit spleen cells (RK-13 cells used for determination); assay: IF induction in vitro, rabbit cells; conditions: 1.0 μg/ml, 25 °C 24 h
Experimental: as §1, §2

Poly: IC
IF activity in vitro [1]: 120 | IF activity in vitro [2]: < 5 | IF activity in vitro [3]: 220
